# Results taken from patent US20260345641A1, “COMPOSITIONS AND USES THEREOF” (Algorae Pharmaceuticals Ltd, priority 2023, published 2026).
# Test system: SH-SY5Y cells
# Assay: Gene expression analysis by RNA sequencing in the presence of Aβ
# Assay type: cell-based, human
# Details: 5 μM, with Aβ
# From the text: The SH-S5Y5 neuroblastoma cell line was used for pre-clinical analysis. The SH-S5Y5 cell line is commonly used as a model for neurodegenerative disorders as the cells can be converted to various types of functional neurons by the addition of specific compounds (see, e.g., Xicoy et al., 2017, Molecular Neurodegeneration, 12: 10). In addition, the SH-S5Y5 cell line has been used widely in experimental neurological studies, including analysis of neuronal differentiation, metabolism, and function related to neurodegenerative processes, neurotoxicity and neuroprotection (see, e.g., Datki et al., 2003, Brain Research Bulletin, 62(3): 22-229; and Xie et al., 2010, Chinese Medical Journal, 123(8): 1086-1092).
# Total RNA was isolated from cells using TRIzol in accordance with the manufacturer's instructions (Invitrogen, Carlsbad, CA, USA). RNA concentration and quality was assessed using a NanoDrop spectrophotometer. Only samples with a 260/280 ratio of ≥1.8 were used for further analysis.
# Messenger RNA (mRNA) was purified from total RNA using poly-T oligo attached magnetic beads. After fragmentation, cDNA synthesis was performed in accordance with the manufacturer's instructions (Illumina, San Diego, CA, USA) to generate a directional and non-directional library. Libraries were checked with Qubit, real-time PCR was performed for quantification, and size distribution detection was performed using the Bioanalyzer. Quantified libraries were pooled and sequenced on an Illumina platform, according to the manufacturer's instructions.
# Raw reads were filtered and mapped to human reference genome (GRCh38/hg38) using HISAT2. Differential gene expression analysis was performed using R Package DEG seq2. […] Manual annotation of genes previously associated with specific neurodegenerative disorders and dementias was performed following a text mining analysis.
smiles,measurement,setting,value
COc1cc2c(cc1OC)C(=O)C(CC1CCN(Cc3ccccc3)CC1)C2 (stereo not shown) [Donepezil],MEG3 gene expression,"control 0.007, P 0.038",0.008
same,SAMD12 gene expression,"control 0.011, P 0.052",0.002
same,TNF gene expression,"control 0.032, P 0.046",0.026
same,ATXN7 gene expression,"control 0.042, P 0.014",0.150
same,PRICKLE2 gene expression,"control 0.060, P 0.007",0.085
same,IRF4 gene expression,"control 0.076, P 0.050",0.010
same,NRXN1 gene expression,"control 0.085, P 0.007",0.125
same,DNAH8 gene expression,"control 0.090, P 0.017",0.009
same,MME gene expression,"control 0.091, P 0.004",0.240
same,CLN3 gene expression,"control 0.092, P 0.051",0.093
same,DMD gene expression,"control 0.166, P 0.017",0.352
same,PPP2R2B gene expression,"control 0.179, P 0.056",0.146
same,PRSS23 gene expression,"control 0.196, P 0.022",0.193
same,ACE gene expression,"control 0.209, P 0.004",0.644
same,A2M gene expression,"control 0.242, P 0.006",0.122
same,TCIRG1 gene expression,"control 0.302, P 0.023",0.340
same,SLC1A1 gene expression,"control 0.314, P 0.003",0.482
same,NTNG1 gene expression,"control 0.327, P 0.009",0.249
same,NTRK2 gene expression,"control 0.329, P 0.015",0.700
same,PIH1D2 gene expression,"control 0.334, P 0.023",0.137
same,TUBA4A gene expression,"control 0.334, P 0.053",0.432
same,FGFR2 gene expression,"control 0.353, P 0.053",0.228
same,PDE11A gene expression,"control 0.366, P 0.020",0.416
same,TUNAR gene expression,"control 0.382, P 0.009",0.441
same,RETREG1 gene expression,"control 0.386, P 0.001",0.774
same,SORL1 gene expression,"control 0.455, P 0.009",0.683
same,DPY19L2P2 gene expression,"control 0.469, P 0.040",0.560
same,TRIM9 gene expression,"control 0.529, P 0.008",1.021
same,MATR3 gene expression,"control 0.559, P 0.001",0.511
same,SYCE2 gene expression,"control 0.567, P 0.049",0.604
same,PLA2G6 gene expression,"control 0.634, P 0.016",0.830
same,DEPDC5 gene expression,"control 0.656, P 0.020",0.683
same,CLN5 gene expression,"control 0.695, P 0.004",0.652
same,SLC9B1 gene expression,"control 0.735, P 0.053",0.713
same,PLAU gene expression,"control 0.799, P 0.005",1.790
same,ATXN1 gene expression,"control 0.851, P 0.002",1.152
same,IRAK1BP1 gene expression,"control 0.866, P 0.030",0.848
same,PRPH gene expression,"control 0.870, P 0.011",1.132
same,FHIT gene expression,"control 0.882, P 0.033",1.086
same,CFAP43 gene expression,"control 0.931, P 0.049",0.636
same,TMEM63A gene expression,"control 0.954, P 0.055",1.141
same,LRRC56 gene expression,"control 0.982, P 0.002",1.129
same,PARD3B gene expression,"control 0.986, P 0.002",1.168
same,ADCY5 gene expression,"control 1.228, P 0.036",1.662
same,DISC1 gene expression,"control 1.302, P 0.033",1.242
same,KCNT1 gene expression,"control 1.355, P 0.002",1.707
same,GAN gene expression,"control 1.529, P 0.018",1.495
same,DPP10 gene expression,"control 1.590, P 0.009",1.562
same,CHRNB4 gene expression,"control 1.624, P 0.018",2.920
same,MEF2C gene expression,"control 1.668, P 0.044",1.624
same,PACRG gene expression,"control 1.720, P 0.027",1.797
same,CDKL5 gene expression,"control 1.735, P 0.001",2.077
same,SIL1 gene expression,"control 1.736, P 0.021",1.886
same,PDLIM3 gene expression,"control 1.777, P 0.026",3.231
same,MT-TH gene expression,"control 1.782, P 0.047",0.388
same,MT-TD gene expression,"control 1.849, P 0.032",2.334
same,MMACHC gene expression,"control 1.874, P 0.018",1.731
same,ZFYVE26 gene expression,"control 1.909, P 0.032",1.930
same,TMLHE gene expression,"control 1.915, P 0.004",2.188
same,MAPT gene expression,"control 1.915, P 0.007",2.615
same,MSRA gene expression,"control 1.969, P 0.027",1.709
same,COQ2 gene expression,"control 1.970, P 0.055",1.406
same,PINK1-AS gene expression,"control 1.974, P 0.029",1.689
same,DLG2 gene expression,"control 1.977, P 0.041",2.816
same,FZD3 gene expression,"control 1.990, P 0.010",2.276
same,KATNAL2 gene expression,"control 2.005, P 0.000",2.056
same,ALMS1 gene expression,"control 2.170, P 0.003",2.220
same,HOTAIR gene expression,"control 2.219, P 0.008",1.982
same,SETD1B gene expression,"control 2.501, P 0.005",3.039
same,DRD2 gene expression,"control 2.532, P 0.031",4.790
same,SMARCA2 gene expression,"control 2.546, P 0.044",2.658
same,MFSD8 gene expression,"control 2.553, P 0.038",2.381
same,BDNF gene expression,"control 2.554, P 0.014",0.255
same,ABCA7 gene expression,"control 2.607, P 0.032",2.087
same,FSD1L gene expression,"control 2.639, P 0.002",2.451
same,ROGDI gene expression,"control 2.747, P 0.055",3.041
same,SPG7 gene expression,"control 2.790, P 0.011",2.471
same,MT-TW gene expression,"control 2.846, P 0.019",2.620
same,ATP1A3 gene expression,"control 2.847, P 0.021",3.739
same,ATL1 gene expression,"control 2.891, P 0.027",3.208
same,GM2A gene expression,"control 2.985, P 0.005",5.621
same,LYST gene expression,"control 3.000, P 0.053",2.468
same,APOL2 gene expression,"control 3.111, P 0.054",3.390
same,DCX gene expression,"control 3.114, P 0.003",3.488
same,IFT74 gene expression,"control 3.453, P 0.032",4.207
same,CLN8 gene expression,"control 3.580, P 0.014",2.847
same,RBM12 gene expression,"control 3.638, P 0.000",3.884
same,PRICKLE1 gene expression,"control 3.757, P 0.002",3.333
same,DPH1 gene expression,"control 3.762, P 0.040",3.962
same,TRAPPC9 gene expression,"control 3.776, P 0.021",4.781
same,EIF2B3 gene expression,"control 3.828, P 0.043",3.200
same,PDE10A gene expression,"control 3.855, P 0.030",3.147
same,TRAPPC2 gene expression,"control 3.872, P 0.053",4.012
same,C9orf72 gene expression,"control 3.921, P 0.001",8.663
same,TFEB gene expression,"control 4.181, P 0.001",2.618
same,PODXL gene expression,"control 4.194, P 0.011",4.847
same,ATP6V0A2 gene expression,"control 4.281, P 0.017",4.607
same,TTC21B gene expression,"control 4.351, P 0.026",4.248
same,VPS13D gene expression,"control 4.370, P 0.001",4.565
same,PIGQ gene expression,"control 4.438, P 0.008",4.983
same,PTPRM gene expression,"control 4.505, P 0.000",4.710
same,RHOBTB2 gene expression,"control 4.522, P 0.012",5.349
same,MRE11 gene expression,"control 4.546, P 0.036",4.436
same,EHMT1 gene expression,"control 4.566, P 0.010",4.445
same,CYLD gene expression,"control 4.607, P 0.036",3.887
same,PRDM8 gene expression,"control 4.779, P 0.013",3.461
same,RNF213 gene expression,"control 4.801, P 0.002",5.276
same,USP8 gene expression,"control 4.840, P 0.047",3.827
same,LIG3 gene expression,"control 4.935, P 0.007",5.232
same,MIAT gene expression,"control 5.041, P 0.014",6.814
same,JAM2 gene expression,"control 5.256, P 0.040",4.131
same,PSEN2 gene expression,"control 5.259, P 0.051",5.579
same,LMBRD1 gene expression,"control 5.367, P 0.022",5.309
same,NPC1 gene expression,"control 5.515, P 0.001",6.062
same,OPA1 gene expression,"control 5.517, P 0.001",9.622
same,VAPB gene expression,"control 5.611, P 0.005",5.235
same,ANXA11 gene expression,"control 5.661, P 0.025",6.974
same,MT-TI gene expression,"control 5.685, P 0.038",4.404
same,GOSR2 gene expression,"control 5.846, P 0.000",5.640
same,LDLR gene expression,"control 5.953, P 0.003",7.563
same,DDHD2 gene expression,"control 6.006, P 0.000",6.144
same,SREBF1 gene expression,"control 6.248, P 0.024",8.317
same,SLC25A24 gene expression,"control 6.258, P 0.036",5.685
same,CREB1 gene expression,"control 6.333, P 0.006",7.340
same,FIG4 gene expression,"control 6.430, P 0.051",6.116
same,BLMH gene expression,"control 6.516, P 0.013",6.896
same,APTX gene expression,"control 6.525, P 0.011",6.767
same,TPP1 gene expression,"control 6.541, P 0.009",7.171
same,ADAM10 gene expression,"control 6.563, P 0.019",5.824
same,MT-TA gene expression,"control 6.758, P 0.027",2.804
same,RAB33A gene expression,"control 6.793, P 0.003",6.922
same,MT-TC gene expression,"control 6.838, P 0.052",10.995
same,MECP2 gene expression,"control 6.880, P 0.033",5.530
same,SPAST gene expression,"control 6.944, P 0.053",5.978
same,TMEM106B gene expression,"control 7.108, P 0.005",6.957
same,CRAT gene expression,"control 7.227, P 0.031",9.692
same,CSTB gene expression,"control 7.261, P 0.008",9.549
same,IRF6 gene expression,"control 7.365, P 0.000",5.933
same,TRPM7 gene expression,"control 7.393, P 0.030",5.958
same,OTUD6B gene expression,"control 7.405, P 0.048",6.534
same,MAPK8 gene expression,"control 7.482, P 0.022",9.392
same,POLR1C gene expression,"control 7.525, P 0.034",6.234
same,CHCHD10 gene expression,"control 7.586, P 0.010",11.163
same,ATL3 gene expression,"control 7.656, P 0.030",6.616
same,WDR37 gene expression,"control 7.709, P 0.023",7.870
